Laboratory results taken from patent publication US9890140B2, “Maleate salts of a quinazoline derivative useful as an antiangiogenic agent” (AstraZeneca AB, priority 2003, dated 2018).

Tests used:
[1] = tested on: VEGF-stimulated proliferation of human umbilical vein endothelial cells (HUVEC); experiment: In vitro HUVEC proliferation assay, VEGF-stimulated; format: cell-based; conditions: read-out: IC50 for inhibition of VEGF-stimulated endothelial cell proliferation
Protocol: (b) In Vitro HUVEC Proliferation Assay
(§1) HUVEC cells were isolated in MCDB 131 (Gibco BRL)+7.5% v/v foetal calf serum (FCS) and were plated out (at passage 2 to 8), in MCDB 131+2% v/v FCS+3 μg/ml heparin+1 μg/ml hydrocortisone, at a concentration of 1000 cells/well in 96 well plates. After a minimum of 4 hours they were dosed with VEGF (3 ng/ml) and compound. The cultures were then incubated for 4 days at 37° C. with 7.5% CO2. On day 4 the cultures were pulsed with 1 μCi/well of tritiated-thymidine (Amersham product TRA 61) and incubated for 4 hours. The cells were harvested using a 96-well plate harvester (Tomtek) and then assayed for incorporation of tritium with a Beta plate counter. Incorporation of radioactivity into cells, expressed as cpm, was used to measure inhibition of growth factor-stimulated cell proliferation by compounds. This methodology was also used to assess compound effects versus basal HUVEC growth (i.e. endothelial cell proliferation in MCDB 131+2% v/v FCS […]+3 μg/ml heparin+1 μg/ml hydrocortisone without the addition of exogenous VEGF).

[2] = tested on: basal HUVEC growth (without exogenous VEGF); experiment: In vitro HUVEC proliferation assay, basal growth; format: cell-based; conditions: Homo sapiens, no exogenous VEGF, read-out: IC50 for inhibition of basal endothelial cell proliferation
Protocol: as §1

[3] = tested on: Calu-6 tumour xenograft; experiment: In vivo solid tumour disease model; set-up: species or system female athymic Swiss nu/nu mice; conditions: once-daily oral, 28 days
Protocol: (c) In Vivo Solid Tumour Disease Model This test measures the capacity of compounds to inhibit solid tumour growth. CaLu-6 tumour xenografts were established in the flank of female athymic Swiss nu/nu mice, by subcutaneous injection of 1×10^6 Calu-6 cells/mouse in 100 μl of a 50% (v/v) solution of Matrigel in serum free culture medium. […] Tumours were measured using vernier calipers and volumes were calculated as: (l×w)×√(l×w)×(π/6), where l is the longest diameter and w the diameter perpendicular to the longest. Test compounds were administered orally once daily for a minimum of 21 days, and control animals received compound diluent. Tumours were measured twice weekly. The level of growth inhibition was calculated by comparison of the mean tumour volume of the control group versus the treatment group using a Student T test and/or a Mann-Whitney Rank Sum Test. The inhibitory effect of compound treatment was considered significant when p<0.05.

[4] = Solid state stability of the free base on dehydration / micronisation (XRPD); format: physicochemical
Protocol: This is shown by a broadening of the peaks and formation of an amorphous 'hump'-see FIG. 4. […] The X-ray powder diffraction spectra were determined by mounting a sample of the crystalline salt on Siemens single silicon crystal (SSC) wafer mounts and spreading out the sample into a thin layer with the aid of a microscope slide. The sample was spun at 30 revolutions per minute (to improve counting statistics) and irradiated with X-rays generated by a copper long-fine focus tube operated at 40 kV and 40 mA with a wavelength of 1.5406 angstroms. The collimated X-ray source was passed through an automatic variable divergence slit set at […] and the reflected radiation directed through a 2 mm antiscatter slit and a 0.2 mm detector slit. The sample was exposed for 1 second per 0.02 degree 2-theta increment (continuous scan mode) over the range 2 degrees to 40 degrees 2-theta in theta-theta mode. The running time was 31 minutes and 41 seconds. The instrument was equipped with a scintillation counter as detector. Control and data capture was by means of a Dell Optiplex 686 NT 4.0 Workstation operating with Diffract+ software. Persons skilled in the art of X-ray powder diffraction will realise that the relative intensity of peaks can be affected by, for example, grains above 30 microns in size and non-unitary aspect ratios which may affect analysis of samples. […]

[5] = Dynamic vapour sorption, moisture content at 80% RH; format: physicochemical; conditions: 80% relative humidity
Protocol: Dynamic Vapour Sorption Analytical Instrument: Surface Measurements Systems Dynamic Vapour Sorption Analyser. About 5 mg of material contained in a quartz holder at 25° C. was subjected to humidified nitrogen at the following relative humidities (RH): 0, 20, 40, 60, 80, 95, 80, 60, 40, 20, 0% RH in duplicate.

[6] = Evidence of hydrate formation (vapour sorption or TGA); format: physicochemical; conditions: vapour sorption (hysteresis, water absorption) or TGA
Protocol: About 5 mg of material contained in a quartz holder at 25° C. was subjected to humidified nitrogen at the following relative humidities (RH): 0, 20, 40, 60, 80, 95, 80, 60, 40, 20, 0% RH in duplicate. Typically between 3 and 12 mg of material contained in a 70 μl alox (aluminium oxide) crucible was heated over the temperature range 25° C. to 325° C. at a constant heating rate of 10° C. per minute. A purge gas using helium was used—flow rate 50 ml per minute.

[7] = Evidence for polymorphism from DSC thermograms; format: physicochemical
Protocol: Analytical Instrument: Mettler DSC820e. Typically less than 5 mg of material contained in a 40 μl aluminium pan fitted with a pierced lid was heated over the temperature range 25° C. to 325° C. at a constant heating rate of 10° C. per minute. A purge gas using nitrogen was used—flow rate 100 ml per minute.

[8] = Crystallinity of AZD2171 salts; format: physicochemical

Solid form after dehydration ([4]; heating to 100° C., FIG. 3) | Solid form after particle size reduction ([4]; micronisation, FIG. 4) | Moisture Content at 80% RH [5] [%] | Evidence of Hydrate Formation (Yes/No) [6] | No of Polymorphs [7] | Crystalline (Yes/No) [8] | Molecule | IC50 [1] [nM] | IC50 [2] [nM] | Inhibition of growth of Calu-6 tumour xenograft ([3]; 1.5 mg/kg/day, P<0.01) [%] | Inhibition of growth of Calu-6 tumour xenograft ([3]; 3 mg/kg/day, P<0.0001) [%] | Inhibition of growth of Calu-6 tumour xenograft ([3]; 6 mg/kg/day, P<0.0001) [%]
becomes amorphous | amorphous material does indeed form |  |  |  |  | COc1cc2c(Oc3ccc4[nH]c(C)cc4c3F)ncnc2cc1OCCCN1CCCC1 [AZD2171, 4-((4-fluoro-2-methyl-1H-indol-5-yl)oxy)-6-methoxy-7-(3-(pyrrolidin-1-yl)propoxy)quinazoline] | 0.4 ± 0.2 | > 500 | 49 | 69 | 91
 |  | 3.5 | No | ≧3 | Yes | Fumarate |  |  |  |  | 
 |  |  | Yes | ≧3 | Yes | Malonate |  |  |  |  | 
